Reference: US4262015A, “N-alkylthio- and N-arylthiosulfinylcarbamate esters” (priority 1979, dated 1981)
Values after ≈ are worked out from the molar mass of the structure shown. Like-named read-outs stand apart in the source and are kept apart here.

How the values were obtained:
[1] = system: house flies, Musca domestica; assay: insecticidal activity against house flies, topical application, mortality at 24 h; type: in vivo; conditions: read-out: House flies LD50
Description: (§1) Representative compounds of the N-arylthio- and N-alkylthiosulfinylcarbamate esters of the invention were tested for insecticidal activity against two insect species, house flies, Musca domestica, and mosquito larvae, Culex pipiens. Stock 1% concentrated solutions of each of the test compounds were made in acetone, and such solutions diluted with acetone to a concentration of 0.001-0.1%. House flies were treated topically on the notum by 1 μl of each of the diluted acetone solutions and percent mortality was counted 24 hours after application. Insects were held at a constant temperature of 60° F. Larvicidal activity was determined by applying 1 ml of the acetone solution in 100 ml of water containing 20 3rd instar mosquito larvae. Results are presented as LD50 in μg/g for house flies and LC50 in ppm for mosquito larvae.

[2] = system: mosquito larvae, Culex pipiens; assay: larvicidal activity against mosquito larvae; type: in vivo; conditions: 3rd instar mosquito larvae, 1 ml acetone solution in 100 ml water
Description: as §1

[3] = in vivo; conditions: mouse, po
Description: Mammalian toxicity was determined against Swiss white mice. The test compound was applied orally using corn oil as the carrier.

[4] = house flies, topical on notum, 1 μl acetone solution, 24 hours

Structure (SMILES) | LD50 ([1]; topical, 24 h) [mg/kg] | LC50 [2] [µg/mL] | LD50 [3] [mg/kg] | LD50 [1, 4] [mg/kg]
CN(C(=O)Oc1cccc2c1OC(C)(C)C2)[S+]([O-])SC(C)(C)C (centres unmarked) [II, 2,3-dihydro-2,2-dimethylbenzofuranyl-7 (methyl)(t-butylthiosulfinyl)carbamate] | 9 | 0.01 (≈ 0.028 µM) | 70 | –
CCCCCCCCCCCCS[S+]([O-])N(C)C(=O)ON=CC(C)(C)SC (centres unmarked) [XII, 2-methyl-2-(methylthio)propionaldehyde O-[(methyl)(dodecylthiosulfinyl)carbamoyl]oxime] | – | – | – | 12
CC(C)c1cccc(OC(=O)N(C)[S+]([O-])SC(C)(C)C)c1 (centres unmarked) [Example X, 3-isopropylphenyl (methyl)(t-butylthiosulfinyl)carbamate] | 75 | – | 250 | –
Cc1cc(C(C)(C)C)ccc1S[S+]([O-])N(C)C(=O)Oc1ccccc1OC(C)C (centres unmarked) [VII, 2-isopropoxyphenyl (methyl)(2-methyl-4-t-butylphenylthiosulfinyl)carbamate] | 27 | – | > 1000 | –
CNC(=O)Oc1cccc2c1OC(C)(C)C2 [carbofuran, 2,3-dihydro-2,2-dimethyl-7-benzofuranyl methylcarbamate, reference compound] | ~6.5 | – | 2 to 8 | –
Cc1cc(C(C)(C)C)ccc1S[S+]([O-])N(C)C(=O)Oc1cccc(C(C)C)c1 (centres unmarked) [XI, 3-isopropylphenyl (methyl)(2-methyl-4-t-butylphenylthiosulfinyl)carbamate] | 62.5 | – | 450 | –
CN(C(=O)Oc1cccc2c1OC(C)(C)C2)[S+]([O-])Sc1ccc(C(C)(C)C)cc1 (centres unmarked) [IV, 2,3-dihydro-2,2-dimethylbenzofuranyl-7 (methyl)(4-t-butylphenylthiosulfinyl)carbamate] | 11.8 | – | 92 | –
CSC(C)=NOC(=O)N(C)[S+]([O-])Sc1ccccc1 (centres unmarked) [IX, S-methyl N-[N'-methyl-N'-phenylthiosulfinylcarbamoyloxy]thioacetimidate] | – | – | 150 | 6.5
CN(C(=O)Oc1cccc2c1OC(C)(C)C2)[S+]([O-])Sc1ccccc1 (centres unmarked) [III, 2,3-dihydro-2,2-dimethylbenzofuranyl-7 (methyl)(phenylthiosulfinyl)carbamate] | 7 | 0.05 (≈ 0.132 µM) | 32 | –
CCCCS[S+]([O-])N(C)C(=O)Oc1cccc2c1OC(C)(C)C2 (centres unmarked) [Example I, 2,3-dihydro-2,2-dimethylbenzofuranyl-7 (methyl)(n-butylthiosulfinyl)carbamate] | 16.5 | – | 45 | –
CSC(C)=NOC(=O)N(C)[S+]([O-])SC(C)(C)C (centres unmarked) [VIII, S-methyl N-[N'-methyl-N'-t-butylthiosulfinylcarbamoyloxy]thioacetimidate] | – | – | 135 | 5.5
CN(C(=O)Oc1cccc2ccccc12)[S+]([O-])SC(C)(C)C (centres unmarked) [XIII, 1-naphthyl (methyl)(t-butylthiosulfinyl)carbamate] | 235 | – | > 1000 | –
CN(C(=O)Oc1cccc2ccccc12)[S+]([O-])Sc1ccccc1 (centres unmarked) [XIV, 1-naphthyl (methyl)(phenylthiosulfinyl)carbamate] | 350 | – | > 1000 | –
Cc1cc(C(C)(C)C)ccc1S[S+]([O-])N(C)C(=O)Oc1cccc2c1OC(C)(C)C2 (centres unmarked) [Example V, 2,3-dihydro-2,2-dimethylbenzofuranyl-7 (methyl)(2-methyl-4-t-butylphenylthiosulfinyl)carbamate] | 8.8 | – | 70 | –
CNC(=O)Oc1ccccc1OC(C)C [2-isopropoxyphenyl methylcarbamate, reference compound] | – | – | 60 | –
CCCCS[S+]([O-])N(C)C(=O)Oc1ccccc1OC(C)C (centres unmarked) [Example VI, 2-isopropoxyphenyl (methyl)(n-butylthiosulfinyl)carbamate] | 31 | – | 1050 | –
